Assay results as given in paper PMC12193833, “Toxicity Assessment and Antifungal Potential of Copper(II) and Silver(I) Complexes with 1,10-Phenanthroline-5,6-dione Against Drug-Resistant Clinical Isolates of Cryptococcus gattii and Cryptococcus neoformans” (Journal of Fungi, 2025).
In brackets after ≈: the same amount, converted by molar mass.

Key:
[1] = system: C. neoformans clinical isolates; experiment: MIC/MFC of test compounds, microdilution; format: cell-based, Cryptococcus neoformans
Description: (§1) Six clinical isolates belonging to the Cryptococcus genus were obtained from patients who attended the Instituto Nacional de Infectologia Evandro Chagas (INI), Fundação Oswaldo Cruz (FIOCRUZ), and were kindly provided by Dr. Rodrigo Almeida-Paes (INI-FIOCRUZ). To comply with ethical standards and institutional agreements between UFRJ and FIOCRUZ, patient data were not disclosed. In this sense, the C. neoformans isolates were designated CFP00213 (213), CFP00223 (223), and CFP00350 (350), while the C. gattii isolates were labeled CFP00023 (23), CFP00025 (25), and CFP00027 (27). Before each experiment, an aliquot of the culture was transferred from Sabouraud dextrose agar (2% glucose, 1% peptone, and 0.5% yeast extract) to RPMI 1640 medium (Sigma-Aldrich, St. Louis, MO, USA), pH 7.2, buffered with 0.165 M MOPS (Sigma-Aldrich, St. Louis, MO, USA). RPMI medium induces the expression of capsular polysaccharides, the primary virulence factor of Cryptococcus cells. The cultures were incubated at 37 °C for 48 h to promote cell proliferation, stimulate metabolic activation, and enhance capsular development. Yeast cell counts were determined using a Neubauer chamber.
(§2) Following MIC determination, the MFC was assessed by inoculating 10 µL from wells showing no visible fungal growth onto Sabouraud dextrose agar. […] To further support and strengthen the evidence of the anti-Cryptococcus activity of the Cu-phendione and Ag-phendione complexes, we additionally performed MIC/MFC assays using well-characterized standard reference strains: ATCC 28957, H99, T1444 (all C. neoformans), and R265 (C. gattii).

[2] = system: C. gattii clinical isolates; experiment: MIC/MFC of test compounds, microdilution; format: cell-based, Cryptococcus gattii
Description: as §1, §2

[3] = system: Galleria mellonella larvae; experiment: In vivo acute toxicity, single treatment; conditions: single inoculation; for Larval survival: 125–1000 µM, 10 µL/larva, 37 °C
Method: In this set of experiments, G. mellonella larvae weighing approximately 0.2–0.3 g and displaying clear, uniform coloration were used. The larvae were inoculated (10 µL/larva) using an insulin syringe (BD Ultra-Fine, Franklin Lakes, NJ, USA) at the last left proleg. […] We also assessed their coloration through visual analysis as an indicator of stress levels. Throughout the experiments, the larvae were maintained at 37 °C [19, 42]. Two distinct treatment protocols were designed to evaluate the effects of the test compounds on larval survivability, as detailed below.
For the acute toxicity analysis, the test compounds were administered to the larvae in a single inoculation at concentrations ranging from 1000 to 125 μM. Each group consisted of 10 larvae, while the control group received only sterile PBS with 4% DMSO. […] The SI was calculated using the following equation: SI = G. mellonella CC50/Cryptococcus MIC.

[4] = system: C. gattii clinical isolates; experiment: Susceptibility to clinically available antifungals, CLSI M27-A3 microdilution; format: cell-based; conditions: Cryptococcus gattii
Description: as §1
(§3) The susceptibility profile was evaluated using the microdilution method in RPMI 1640 medium buffered with 0.165 M MOPS, following the M27-A3 protocol for yeasts established by the Clinical and Laboratory Standards Institute (CLSI). […] Each fungal isolate was classified as either wild-type or non-wild-type for each antifungal based on the epidemiological cutoff values provided in CLSI M59 ED3, 2020 [32].

[5] = system: C. neoformans clinical isolates; experiment: as above; format: cell-based; conditions: Cryptococcus neoformans
Description: as §1, §3

[6] = system: six clinical Cryptococcus isolates; experiment: Susceptibility to clinically available antifungals, all six isolates; format: cell-based, Cryptococcus neoformans and Cryptococcus gattii
Description: as §1, §3

[7] = system: G. mellonella larvae; set-up: method as in PMID 32265890; conditions: cited from earlier work; for Toxicity in G. mellonella larvae: up to 500 µg/mL, within 72 h; for Mortality rate in G. mellonella larvae: 750 µg/mL
[8] = system: G. mellonella; conditions: cited from earlier work
[9] = C. neoformans isolate 213, read-out: MIC
[10] = C. neoformans isolate 223, read-out: MIC
[11] = C. neoformans isolate 350, read-out: MIC
[12] = all C. neoformans clinical isolates
[13] = C. gattii isolate 23, read-out: MIC
[14] = C. gattii isolate 25, read-out: MIC
[15] = C. gattii isolate 27, read-out: MIC
[16] = all C. gattii clinical isolates
[17] = 24 h, C. gattii isolate 23, 37 °C
[18] = 24 h, C. gattii isolate 25, 37 °C
[19] = 24 h, C. gattii isolate 27, 37 °C
[20] = C. gattii isolate 23, value in brackets
[21] = C. gattii isolate 25, value in brackets
[22] = C. gattii isolate 27, value in brackets
[23] = 24 h, C. neoformans isolate 213, 37 °C
[24] = 24 h, C. neoformans isolate 223, 37 °C
[25] = 24 h, C. neoformans isolate 350, 37 °C
[26] = C. neoformans isolate 213, value in brackets
[27] = C. neoformans isolate 223, value in brackets
[28] = C. neoformans isolate 350, value in brackets

[Ag+].[O-][Cl+3]([O-])([O-])[O-] [AgClO4, silver perchlorate]
MFC ([1]; C. neoformans isolate 213): > 100 µM
MIC [1, 9]: 1.56 µM
MFC ([1]; C. neoformans isolate 223): > 100 µM
MIC [1, 10]: 1.56 µM
MFC ([1]; C. neoformans isolate 350): > 100 µM
MIC [1, 11]: 1.56 µM
MFC [1, 12]: > 100 µM
MIC ([1]; all C. neoformans clinical isolates, read-out: MIC): 1.56 µM
MFC ([2]; C. gattii isolate 23): 12.5 µM
MIC [2, 13]: 1.56 µM
MFC ([2]; C. gattii isolate 25): 12.5 µM
MIC [2, 14]: 1.56 µM
MFC ([2]; C. gattii isolate 27): 12.5 µM
MIC [2, 15]: 1.56 µM
MFC [2, 16]: 12.5 µM
MIC ([2]; all C. gattii clinical isolates, read-out: MIC): 1.56 µM
Larval mortality ([3]; 250 µM): 20%
Larval mortality ([3]; 500 µM): 20%
Larval mortality ([3]; 1000 µM): 50%

C[C@@H]1[C@H](O)[C@@H](C)/C=C/C=C/C=C/C=C/C=C/C=C/C=C/[C@H](O[C@@H]2O[C@H](C)[C@@H](O)[C@H](N)[C@@H]2O)C[C@@H]2O[C@](O)(C[C@@H](O)C[C@@H](O)[C@H](O)CC[C@@H](O)C[C@@H](O)CC(=O)O[C@H]1C)C[C@H](O)[C@H]2C(=O)O [Amphotericin B, amphotericin B]
MIC [4, 17]: 0.03 µg/mL
MIC [4, 18]: 0.03 µg/mL
MIC [4, 19]: 0.03 µg/mL
MIC [4, 20]: 0.03 µM
MIC [4, 21]: 0.03 µM
MIC [4, 22]: 0.03 µM
MIC [5, 23]: 0.03 µg/mL
MIC [5, 24]: > 16 µg/mL
MIC [5, 25]: 0.03 µg/mL
MIC [5, 26]: 0.03 µM
MIC [5, 27]: > 17.3 µM
MIC [5, 28]: 0.03 µM
MIC ([6]; all other Cryptococcus isolates (except C. neoformans isolate printed as 233)): 0.03 µg/mL (≈ 0.0325 µM)

O.O.O.O.O.O.[Cu+2].[O-][Cl+3]([O-])([O-])[O-].[O-][Cl+3]([O-])([O-])[O-] [Cu(ClO4)2.6H2O, copper perchlorate]
MIC ([1]; C. neoformans isolate 213): >100/ND µM
MIC ([1]; C. neoformans isolate 223): >100/ND µM
MIC ([1]; C. neoformans isolate 350): >100/ND µM
MIC [1, 12]: no antifungal activity
MIC ([2]; C. gattii isolate 23): >100/ND µM
MIC ([2]; C. gattii isolate 25): >100/ND µM
MIC ([2]; C. gattii isolate 27): >100/ND µM
MIC [2, 16]: no antifungal activity
Larval survival [3]: 100%

OC(Cn1cncn1)(Cn1cncn1)c1ccc(F)cc1F [Fluconazole, fluconazole]
MIC [4, 17]: 32 µg/mL
MIC [4, 18]: 16 µg/mL
MIC [4, 19]: 16 µg/mL
MIC [4, 20]: 104 µM
MIC [4, 21]: 52.2 µM
MIC [4, 22]: 52.2 µM
MIC ([6]; across all six clinical Cryptococcus isolates): ≥ 4 µg/mL

Nc1[nH]c(=O)ncc1F [Flucytosine, flucytosine]
MIC [4, 17]: 0.125 µg/mL
MIC [4, 18]: 4 µg/mL
MIC [4, 19]: 4 µg/mL
MIC [4, 20]: 0.96 µM
MIC [4, 21]: 30 µM
MIC [4, 22]: 30 µM
MIC [5, 23]: 4 µg/mL
MIC [5, 24]: 64 µg/mL
MIC [5, 25]: 16 µg/mL
MIC [5, 26]: 30 µM
MIC [5, 27]: 496 µM
MIC [5, 28]: 124 µM

O=C1C(=O)c2cccnc2-c2ncccc21 [Phendione, 1,10-Phenanthroline-5,6-dione]
MIC [1, 9]: 12.5 µM (≈ 2.63 µg/mL)
MIC [1, 10]: 12.5 µM (≈ 2.63 µg/mL)
MIC [1, 11]: 12.5 µM (≈ 2.63 µg/mL)
MFC ([1]; Cryptococcus neoformans, C. neoformans isolate 213): > 100 µM
MFC ([1]; Cryptococcus neoformans, C. neoformans isolate 223): 100 µM (≈ 21 µg/mL)
MFC ([1]; Cryptococcus neoformans, C. neoformans isolate 350): 100 µM (≈ 21 µg/mL)
MFC ([1]; Cryptococcus neoformans, all C. neoformans clinical isolates): ≥ 100 µM
MIC ([1]; Cryptococcus neoformans, all C. neoformans clinical isolates, read-out: MIC): 12.5 µM (≈ 2.63 µg/mL)
MIC [2, 13]: 12.5 µM (≈ 2.63 µg/mL)
MIC [2, 14]: 12.5 µM (≈ 2.63 µg/mL)
MIC [2, 15]: 12.5 µM (≈ 2.63 µg/mL)
MFC ([2]; Cryptococcus gattii, C. gattii isolate 23): > 100 µM
MFC ([2]; Cryptococcus gattii, C. gattii isolate 25): 100 µM (≈ 21 µg/mL)
MFC ([2]; Cryptococcus gattii, C. gattii isolate 27): > 100 µM
MFC ([2]; Cryptococcus gattii, all C. gattii clinical isolates): ≥ 100 µM
MIC ([2]; Cryptococcus gattii, all C. gattii clinical isolates, read-out: MIC): 12.5 µM (≈ 2.63 µg/mL)
Larval survival [3]: 100%

[Ag+].[O-][Cl+3]([O-])([O-])[O-].c1cnc2c(c1)ccc1cccnc12.c1cnc2c(c1)ccc1cccnc12 [[Ag(1,10-phenanthroline)2]ClO4]
Toxicity in G. mellonella larvae [7]: no toxicity
Galiomycin expression [8]: increased
RNA levels encoding transferrin and inducible metalloproteinase inhibitor protein (IMPI) [8]: increased

O.O.O.O.O=C([O-])c1cccc(C(=O)[O-])c1.O=C([O-])c1cccc(C(=O)[O-])c1.[Mn+2].[Mn+2].c1cnc2c(c1)ccc1cccnc12.c1cnc2c(c1)ccc1cccnc12.c1cnc2c(c1)ccc1cccnc12 [[Mn2(isophthalic acid)2(1,10-phenanthroline)3]·4H2O]
RNA levels encoding transferrin and inducible metalloproteinase inhibitor protein (IMPI) [8]: increased

O.O.O=C([O-])c1ccccc1C(=O)[O-].[Mn+2].c1cnc2c(c1)ccc1cccnc12 [[Mn(phthalic acid)(1,10-phenanthroline)(H2O)2]]
Mortality rate in G. mellonella larvae [7]: 40%
Toxicity in G. mellonella larvae [7]: no toxicity

O.O.O.O.O.O=C([O-])c1ccc(C(=O)[O-])cc1.[Mn+2].c1cnc2c(c1)ccc1cccnc12.c1cnc2c(c1)ccc1cccnc12 [[Mn(terephthalic acid)(1,10-phenanthroline)2]·5H2O]
Gallerimycin expression [8]: upregulated
RNA levels encoding transferrin and inducible metalloproteinase inhibitor protein (IMPI) [8]: increased

O.O.O.O.O.O.O.O.O.O.O.O.O.O.O.O.O=C([O-])c1cccc(C(=O)[O-])c1.O=C([O-])c1cccc(C(=O)[O-])c1.[Mn+2].[Mn+2].c1cnc2c(c1)ccc1cccnc12.c1cnc2c(c1)ccc1cccnc12.c1cnc2c(c1)ccc1cccnc12.c1cnc2c(c1)ccc1cccnc12.c1cnc2c(c1)ccc1cccnc12 [{[Mn(1,10-phenanthroline)2(H2O)2]}2(isophthalic acid)2(1,10-phenanthroline)·12H2O]
Mortality rate in G. mellonella larvae [7]: 13%

{[Cu(3,6,9-trioxaundecanedioic acid)(1,10-phenanthroline)2]3H2O·EtOH}n
Mortality rate in G. mellonella larvae [7]: 60%
Toxicity in G. mellonella larvae [7]: no toxicity

{[Mn(3,6,9-trioxoundecanedioic acid)(1,10-phenanthroline)2]·3H2O·EtOH}n
RNA levels encoding transferrin and inducible metalloproteinase inhibitor protein (IMPI) [8]: increased
